Laboratory results as given in US20040126751A1 (priority 2002, published 2004).
Values joined by “and” are separate entries in the source; they are usually repeats but may differ in a detail not shown here. Equal values may be shown once.

Assays:
[1] = tested on: ATP-dependent potassium current (IK(ATP)); assay: whole-cell patch-clamp of pinacidil-primed IK(ATP) in isolated ventricular myocytes; format: cell-based, guinea pig; conditions: for outward current density at +30 mV under control conditions: before pinacidil
Text: The electrophysiological properties of a cardiac myocyte are strongly affected by its energetic condition. Particularly, the adenosine triphosphate (ATP)-dependent potassium current (IK(ATP)) is known to link bioenergetic metabolism with membrane excitability by sensing intracellular concentrations of ATP and adenosine diphosphate (ADP). Under physiological conditions, ATP-dependent potassium channels (K(ATP)-channels) are predominantly closed due to inhibition by intracellular ATP (ATPi). However, when the ATPi concentration falls below certain values (like in pathological states such as acute myocardial ischaemia), the K(ATP)-channels open. […] Thus, the amount of IK(ATP) activation induced by these drugs serves as an indicator of the intracellular ATP-content.
In this example, guinea pig ventricular myocytes were isolated by Langendorff perfusion using collagenase, as is described in H. M. Piper et al., Culturing of calcium stable adult cardiac myocytes, J. Mol. Cell Cardiol. 14 (1982), pp. 397-412. The isolated myocytes were stored in a cell culture medium M 199 (Sigma™, St. Louis, Mo.), supplemented with 5 μg/ml penicillin and 5 IU/ml of streptomycin and were kept in an incubator at 37° C. All experiments were performed within 24 hours after isolation of the myocytes.
Membrane currents were recorded using the whole-cell single electrode voltage-clamp configuration of the patch-clamp technique (see O. P. Hamill et al., Improved patch-clamp techniques for high-resolution current recording from cells and cell-free membrane patches, Pflüger's Arch. 391 (1981), pp. 85-100) using a List L/M-EPC 7 amplifier (List™, Darmstadt, Germany) as previously described by Pelzmann and coworkers in B. Pelzmann et al., Effects of K^+ channel openers on IK(ATP) of human atrial myocytes at physiological temperatures, Naunyn-Schmiedeberg's Arch. […] Only quiescent rod-shaped cells with clear cross striation were used for voltage-clamp experiments. Cell membrane capacitance (Cm) was determined by integration of the capacitive transient elicited by a 10 mV hyperpolarizing pulse from −50 mV. Cm (up to 100 pF) and series resistance (Rs, by at least 50%) were compensated. Voltage-clamp pulses were generated with an IBM-compatible computer connected to a D/A and A/D converter (Digidata 1200™, Axon Instruments, Foster City, USA). Data acquisition and analyses were performed using pCLAMP 5.7.1 software (Axon Instruments). In order to allow equilibration of the pipette solution with the cytosol, current recordings were started five minutes after rupture of the membrane patch.
Two experimental protocols were used in these examples. Modulation of IK(ATP) by drugs was evaluated as the change of outward current density (current amplitudes divided by Cm (pA/pF) in order to compensate for variations in cell size) at +30 mV in response to a 2 second ramp from −100 to +60 mV (Iramp). Time course of IK(ATP) activation and blockade was studied by recording the holding current at −40 mV (Ihold(−40 mV)). Stock solutions of IK(ATP) channel blocker glibenclamide (Sigma™) and of K(ATP) channel opener pinacidil (Sigma™) were prepared in dimethyl sulfoxide (DMSO). Averaged data are expressed as a mean±standard deviation (or standard error of the mean, SEM), with n=number of cells. Error bars in the figures represent standard deviations (except in FIG. 5).
(§1) Statistical significance was determined by a two-tailed Student's t-test or, if more than two conditions were compared, by one-way analysis of variance (ANOVA) with the LSD (least significant difference) post hoc test. Differences were considered significant when P<0.05.

cardiomyocytes = assay: HPLC determination of intracellular adenine nucleotide content of cardiomyocytes; format: cell-based, guinea pig; conditions: four hours
Protocol: The analytical method used for the determination of adenine nucleotides was that reported in Hallström, S. et al., “S-nitroso human serum albumin treatment reduces ischemia/reperfusion injury in skeletal muscle via nitric oxide release,” Circulation, 105 (2002), 3023-3038 (“Hallström et al.”). In brief, the only alterations from the analytical method reported by Hallström et al. were as follows: separation was performed on a Hypersil ODS column (5 μm, 250 mm×4 mm I.D.) using a Waters™ 717 plus Autosampler, two constaMetric™ III pumps, a gradient controller (LDC/Milton Roy) and a Waters™ 969 photodiode array detector; detector signals (absorbance at 254 nm) were recorded with an AGC™ Personal Computer; and the program Millennium (Waters™) was used for data requisition and analysis. Cardiomyocytes were deproteinized with 250 μL of 0.4 M/L perchloric acid. After centrifugation (12,000 g), 200 μL of the acid extract were neutralized with 12.5 μL of 2 M potassium carbonate (4° C.). The supernatant (10 μL) obtained after centrifugation was used for High Performance Liquid Chromatography (HPLC) analysis. The pellets of the acid extract were dissolved in 1 mL of 0.1 M sodium hydroxide and further diluted 1:10 with physiologic saline for protein determination (BCA Protein Assay, Pierce). The percentage of living cells was estimated by determining the ratio of the number of rod shaped to rounded myocytes. At least 600 myocytes were counted for each preparation.
as §1

PC 12 cells = conditions: NADH-supplementation of PC 12 cells; cited from earlier work
rat striatal slices = conditions: cited from earlier work
[2] = incubation in amounts equimolar to 400 μg/ml NADH

Compound: NC(=O)C1=CN(C2OC(COP(=O)([O-])OP(=O)([O-])OCC3OC(n4cnc5c(N)ncnc54)C(O)C3O)C(O)C2O)C=CC1.[Na+].[Na+] (stereo not drawn) [NADH, β-nicotinamide adenine dinucleotide, reduced form, disodium salt]
- outward current density at +30 mV after application of pinacidil ([1]; incubation 200 μg/ml, 30 μM pinacidil, 4.3 mM ATPi): 25.4±3.97 pA/pF
- outward current density at +30 mV under control conditions ([1]; incubation 200 μg/ml, 4-6 hours): 1.82±0.33 pA/pF
- outward current density after washout of pinacidil ([1]; incubation 300 μg/ml): 1.09±0.14 pA/pF
- outward current density at +30 mV under control conditions ([1]; incubation 300 μg/ml, 4-6 hours): 1.72±0.19 pA/pF
- outward current density at +30 mV under control conditions ([1]; incubation 400 μg/ml, 4-6 hours): 1.70±0.18 pA/pF
- outward current density after washout of pinacidil ([1]; incubation 800 μg/ml): 1.75±0.48 pA/pF
- outward current density at +30 mV under control conditions ([1]; incubation 800 μg/ml, 4-6 hours): 1.76±0.36 pA/pF
- outward current density at +30 mV under control conditions ([1]; incubation 1600 μg/ml, 4-6 hours): 2.53±0.49 pA/pF
- ATP content in cardiomyocytes (cardiomyocytes; 400 mcg per ml cell culture medium, control 35.35±2.57): 45.59±1.88 nmol/mg protein of living cells
- ADP content in cardiomyocytes compared to control (cardiomyocytes; 400 mcg per ml): no significant alteration
- AMP content in cardiomyocytes compared to control (cardiomyocytes; 400 mcg per ml): no significant alteration
- dopamine production (PC 12 cells): increased dopamine production
- dopamine release (rat striatal slices): increase of dopamine release

Compound: NC(=O)c1ccc[n+]([C@@H]2O[C@H](COP(=O)([O-])OP(=O)(O)OC[C@H]3O[C@@H](n4cnc5c(N)ncnc54)[C@H](O)[C@@H]3O)[C@@H](O)[C@H]2O)c1 [NAD^+, β-nicotinamide adenine dinucleotide, oxidized form]
- outward current density after washout of pinacidil [1, 2]: 1.44±0.25 pA/pF
- outward current density at +30 mV after addition of 30 μM pinacidil [1, 2]: 29.0±7.01 pA/pF
- outward current density at +30 mV under control conditions [1, 2]: 1.96±0.20 pA/pF

Compound: COc1ccc(Cl)cc1C(=O)NCCc1ccc(S(=O)(=O)NC(=O)NC2CCCCC2)cc1 [glibenclamide]
- inhibition of pinacidil-activated IK(ATP) ([1]; 1 μM glibenclamide after 30 μM pinacidil): completely inhibited
- effect on basal Iramp ([1]; physiological conditions, 4.3 mM ATPi, data not shown): did not affect Iramp

Compound: NC(=O)c1cccnc1 [nicotinamide]
- outward current density after washout of pinacidil [1, 2]: 1.13±0.15 pA/pF
- outward current density at +30 mV after addition of 30 μM pinacidil [1, 2]: 30.5±4.83 pA/pF
- outward current density at +30 mV under control conditions [1, 2]: 2.01±0.36 pA/pF

Compound: CC(N/C(=N\C#N)Nc1ccncc1)C(C)(C)C (stereo not drawn) [pinacidil]
- outward current density at +30 mV (Iramp) ([1]; 30 μM pinacidil, 1 mM ATPi): 52.2±13.8 pA/pF
- outward current density at +30 mV (Iramp) ([1]; 30 μM pinacidil, 4.3 mM ATPi, control myocytes): 28.9±3.38 pA/pF and 28.3±3.26 pA/pF
- outward current density at +30 mV after washout ([1]; after washout of 30 μM pinacidil (5 minutes), control myocytes): 1.81±0.22 pA/pF and 1.81±0.21 pA/pF
